Measurements as given in ChEMBL document CHEMBL1144213, “Synthesis and antiproliferative activity of unnatural enantiomers of 7-epi-goniofufurone and crassalactone C” (Bioorg Med Chem Lett, 2008).

Assays:
HL-60 = assay: Cytotoxicity against human HL-60 cells after 72 hrs by MTT assay; assay type: functional, cell-based; conditions: HL-60, 72 h
MRC5 = assay: Cytotoxicity against human MRC5 cells after 72 hrs by MTT assay; assay type: cell-based; conditions: MRC5, 72 h
Jurkat = assay: Cytotoxicity against human Jurkat cells after 72 hrs by MTT assay; assay type: functional, cell-based
HeLa = assay: Cytotoxicity against human HeLa cells after 72 hrs by MTT assay; assay type: functional, cell-based
Raji = assay: Cytotoxicity against human Raji cells after 72 hrs by MTT assay; assay type: functional, cell-based

Compound	IC50 (HL-60) [µM]	IC50 (MRC5) [µM]	IC50 (Jurkat) [µM]	IC50 (HeLa) [µM]	IC50 (Raji) [µM]
O=C(/C=C/c1ccccc1)O[C@@H](c1ccccc1)[C@@H]1O[C@H]2CC(=O)O[C@H]2[C@@H]1O [CRASSALACTONE C (ENANTIOMERIC MIX)]	1.87	> 100	15.7	1.18	0.57
O=C1C[C@@H]2O[C@@H]3[C@@H](O[C@H]3c3ccccc3)[C@@H]2O1	0.025	> 100	28.4	0.97	0.45
O=C(/C=C/c1ccccc1)O[C@H](c1ccccc1)[C@H]1O[C@@H]2CC(=O)O[C@@H]2[C@H]1O [(+)-CRASSALACTONE C]	> 100	> 100	25.4	11.2	15.5
O=C1C[C@@H]2O[C@@H]([C@H](O)c3ccccc3)[C@@H](O)[C@@H]2O1	13.9	> 100	0.05	4.38	> 100
COc1cccc2c1C(=O)c1c(O)c3c(c(O)c1C2=O)C[C@@](O)(C(=O)CO)C[C@@H]3O[C@H]1C[C@H](N)[C@H](O)[C@H](C)O1 [DOXORUBICIN]	0.92		0.03		
O=C1C[C@H]2O[C@H]([C@@H](O)c3ccccc3)[C@H](O)[C@H]2O1	22	> 100	18.6	0.89	1.25
